Columns and labels:
[1] = tested on: IL-6; experiment: IL-6 inhibition in LPS-stimulated human peripheral blood mononuclear cells (HTRF); conditions: Homo sapiens, PBMC; for EC50: 22 h; for inhibition at 10 µM: read-out: percentage in parentheses after EC50 >10
[2] = tested on: secreted cytokines TNFα, IL-6 and KC-GRO; experiment: Secreted cytokines in Lipopolysaccharide-stimulated BV-2 cells (Table 9 does not say which cytokine); assay type: cell-based, mouse; conditions: Mus musculus, BV-2, 5 h; read-out: EC50
[3] = tested on: α-smooth muscle actin (aSMA) positive LL29 cells; experiment: Inhibition of the fibrotic process: αSMA staining in TGF-β1 treated LL29 fibroblasts from IPF patients; conditions: Homo sapiens, Fibroblast; for EC50: 96 h; for inhibition at 10 µM: read-out: percentage in parentheses after EC50 >10
[4] = biological target: GSK3β kinase (Homo sapiens, UniProt P49841); experiment: GSK3β kinase activity (Ser/Thr 09 peptide Z-lyte FRET assay); assay type: biochemical; conditions: recombinant kinase, 46 μM ATP, one hour at room temperature; read-out: EC50
GSK3β kinase, sequence (P49841 whole entry): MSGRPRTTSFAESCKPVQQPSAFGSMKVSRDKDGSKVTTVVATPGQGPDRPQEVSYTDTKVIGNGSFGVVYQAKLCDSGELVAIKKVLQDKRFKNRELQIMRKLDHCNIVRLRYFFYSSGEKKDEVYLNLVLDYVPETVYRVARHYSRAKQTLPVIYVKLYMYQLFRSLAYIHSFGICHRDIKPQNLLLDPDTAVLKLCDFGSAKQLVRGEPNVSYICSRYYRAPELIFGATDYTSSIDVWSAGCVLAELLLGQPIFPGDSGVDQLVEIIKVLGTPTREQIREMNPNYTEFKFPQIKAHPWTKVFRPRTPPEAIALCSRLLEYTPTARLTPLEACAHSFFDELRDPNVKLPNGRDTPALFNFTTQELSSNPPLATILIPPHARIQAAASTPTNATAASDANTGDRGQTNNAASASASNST

[5] = biological target: DYRK1A kinase (Homo sapiens, UniProt Q13627); experiment: DYRK1A kinase activity (Ser/Thr 18 peptide Z-lyte FRET assay); assay type: biochemical; conditions: recombinant DYRK1A, 30 μM ATP, one hour at room temperature;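 also: kinase activity read as coumarin/fluorescein emission ratio after development step, with unphosphorylated and phosphorylated peptide forms setting 0% and 100% controls, values from dose-response curves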
[6] = tested on: SW480 colon carcinoma cells; experiment: Cell viability assay (CellTiter-Glo); conditions: Homo sapiens; for EC50: SW480, 96 h; for inhibition at 10 µM: SW480, read-out: percent inhibition at 10 μM
[7] = tested on: Wnt-responsive Sp5-Luc reporter in SW480 colon carcinoma cells; experiment: Screening assay for Wnt activity (Sp5-Luc reporter gene assay); conditions: Homo sapiens; for EC50: SW480; for inhibition at 10 µM: SW480, read-out: percent inhibition at 10 μM

EC50 [1] | EC50 [2] | EC50 [4] | EC50 [5] | EC50 [6] | EC50 [7] | SMILES | inhibition at 10 µM [1] | EC50 [3] | inhibition at 10 µM [3] | inhibition at 10 µM [6] | inhibition at 10 µM [7]
> 10000 nM | 357 nM | 1150 nM | 12 nM | > 10000 nM | > 10000 nM | Cn1cc(-c2cnc3cnc(NC(=O)C4CCN(S(C)(=O)=O)CC4)cc3c2)cn1 [Compound 2792, N-(3-(1-Methyl-1H-pyrazol-4-yl)-1,7-naphthyridin-6-yl)-1-(methylsulfonyl) piperidine-4-carboxamide] | 4% | > 10000 nM | 44.8% | 29% | 38.1%
7310 nM | 919 nM | 4940 nM | 74 nM | > 10000 nM | > 10000 nM | Cn1cc(-c2cnc3cnc(NC(=O)CC4CNCCO4)cc3c2)cn1 (stereo not shown) [Compound 2807, N-(3-(1-Methyl-1H-pyrazol-4-yl)-1,7-naphthyridin-6-yl)-2-(morpholin-2-yl) acetamide] |  | > 10000 nM | 35.2% | 7.9% | 0%
> 10000 nM | 445 nM | 5260 nM | 24 nM | > 10000 nM | > 10000 nM | Cn1cc(-c2cnc3cnc(NC(=O)C4CCN(Cc5ncco5)CC4)cc3c2)cn1 [Compound 2816, N-(3-(1-Methyl-1H-pyrazol-4-yl)-1,7-naphthyridin-6-yl)-1-(oxazol-2-ylmethyl)piperidine-4-carboxamide] | 2.2% | > 10000 nM | 27.3% | 23.2% | 15.4%
> 10000 nM | 895 nM | 7060 nM | 37 nM | > 10000 nM | > 10000 nM | Cn1cc(-c2cnc3cnc(NC(=O)C4CCN(Cc5ncccn5)CC4)cc3c2)cn1 [Compound 2820, N-(3-(1-Methyl-1H-pyrazol-4-yl)-1,7-naphthyridin-6-yl)-1-(pyrimidin-2-ylmethyl)piperidine-4-carboxamide] | 3.3% | 8910 nM |  | 22.4% | 5.3%
> 10000 nM | 5300 nM | 5370 nM | 82 nM | > 10000 nM | > 10000 nM | CN1CCCN(CC(=O)Nc2cc3cc(-c4cnn(C)c4)cnc3cn2)CC1 [Compound 2826, 2-(4-Methyl-1,4-diazepan-1-yl)-N-(3-(1-methyl-1H-pyrazol-4-yl)-1,7-naphthyridin-6-yl)acetamide] | 2.1% | > 10000 nM | 37.9% | 20.4% | 11.2%
> 10000 nM | 1700 nM | > 10000 nM | 16 nM | 4680 nM | > 10000 nM | CN1CCN(c2ccc(C(=O)Nc3cc4cc(-c5cnn(C)c5)cnc4cn3)cn2)CC1 [Compound 2871, N-(3-(1-Methyl-1H-pyrazol-4-yl)-1,7-naphthyridin-6-yl)-6-(4-methylpiperazin-1-yl)nicotinamide] | 0% | 9770 nM |  |  | 24.5%
> 10000 nM | 131 nM | 453 nM | 28 nM | 692 nM | 751 nM | Cn1cc(-c2cnc3cnc(NC(=O)CCc4ccccc4)cc3c2)cn1 [Compound 2914, N-(3-(1-Methyl-1H-pyrazol-4-yl)-1,7-naphthyridin-6-yl)-3-phenylpropanamide] | 5% | 893 nM |  |  | 
> 10000 nM | 234 nM | > 10000 nM | 17 nM | 1060 nM | 835 nM | Cn1cc(-c2cnc3cnc(NC(=O)c4ccc5ccoc5c4)cc3c2)cn1 [Compound 2929, N-(3-(1-Methyl-1H-pyrazol-4-yl)-1,7-naphthyridin-6-yl)benzofuran-6-carboxamide] | 4.5% | 2250 nM |  |  | 
9150 nM | 454 nM | > 10000 nM | 24 nM | 440 nM | 59 nM | CN1CCC(n2cc(C(=O)Nc3cc4cc(-c5cnn(C)c5)cnc4cn3)cn2)CC1 [Compound 2949, N-(3-(1-Methyl-1H-pyrazol-4-yl)-1,7-naphthyridin-6-yl)-1-(1-methylpiperidin-4-yl)-1H-pyrazole-4-carboxamide] |  | 5150 nM |  |  | 
> 10000 nM | 491 nM | > 10000 nM | 28 nM | 1500 nM | 915 nM | CC(C)OC(=O)N1CCC(n2cc(C(=O)Nc3cc4cc(-c5cnn(C)c5)cnc4cn3)cn2)CC1 [Compound 2954, Isopropyl 4-(4-((3-(1-methyl-1H-pyrazol-4-yl)-1,7-naphthyridin-6-yl)carbamoyl)-1H-pyrazol-1-yl)piperidine-1-carboxylate] | 45% | 3340 nM |  |  | 
> 10000 nM | 1200 nM | > 10000 nM | 17 nM | 3370 nM | 2610 nM | CN1CCN(c2cc(C(=O)Nc3cc4cc(-c5cnn(C)c5N)cnc4cn3)ccn2)CC1 [Compound 3024, N-(3-(5-Amino-1-methyl-1H-pyrazol-4-yl)-1,7-naphthyridin-6-yl)-2-(4-methylpiperazin-1-yl)isonicotinamide] | 11.1% | > 10000 nM | 50% |  | 
1650 nM | 127 nM | > 10000 nM | 8 nM | 599 nM | 607 nM | CN1CCC2(CC1)CN(c1cc(C(=O)Nc3cc4cc(-c5cnn(C)c5CN5CCCCC5)cnc4cn3)ccn1)C2 [Compound 3032, N-(3-(1-Methyl-5-(piperidin-1-ylmethyl)-1H-pyrazol-4-yl)-1,7-naphthyridin-6-yl)-2-(7-methyl-2,7-diazaspiro[3.5]nonan-2-yl)isonicotinamide] |  | 1580 nM |  |  | 
> 10000 nM | 3900 nM | 836 nM | 58 nM | > 10000 nM | 4500 nM | Cn1cc(-c2cnc3cnc(NC(=O)C4CCN(CC5(C(F)(F)F)CC5)CC4)cc3c2)nn1 [Compound 3067, N-(3-(1-Methyl-1H-1,2,3-triazol-4-yl)-1,7-naphthyridin-6-yl)-1-((1-(trifluoromethyl)cyclopropyl)methyl)piperidine-4-carboxamide] | 0% | > 10000 nM | 31.7% | 42.2% | 
> 10000 nM | 2600 nM | > 10000 nM | 8 nM | > 10000 nM | > 10000 nM | Cn1cncc1-c1cnc2cnc(NC(=O)c3ccc(F)cc3)cc2c1 [Compound 3168, 4-Fluoro-N-(3-(1-methyl-1H-imidazol-5-yl)-1,7-naphthyridin-6-yl) benzamide] | 0% | > 10000 nM | 10.2% | 25.8% | 17.3%
> 10000 nM | ≥ 10000 nM | > 10000 nM | 6 nM | 4070 nM | 4780 nM | Cn1cncc1-c1cnc2cnc(NC(=O)c3ccc4c(c3)CNC4)cc2c1 [Compound 3194, N-(3-(1-Methyl-1H-imidazol-5-yl)-1,7-naphthyridin-6-yl)isoindoline-5-carboxamide] | 8.9% | > 10000 nM | 47.3% |  | 
> 10000 nM | 458 nM | 5300 nM | 16 nM | > 10000 nM | > 10000 nM | CC(F)(F)CN1CCC(C(=O)Nc2cc3cc(-c4cnco4)cnc3cn2)CC1 [Compound 3257, 1-(2,2-Difluoropropyl)-N-(3-(oxazol-5-yl)-1,7-naphthyridin-6-yl)piperidine-4-carboxamide] | 3.2% | > 10000 nM | 36% | 15% | 12.9%
> 10000 nM | 1200 nM | > 10000 nM | 24 nM | 1940 nM | 3500 nM | Cn1cncc1-c1cnc2cnc(NC(=O)c3cccc(CN4CCCC4)c3)cc2c1 [Compound 3259, N-(3-(1-Methyl-1H-imidazol-5-yl)-1,7-naphthyridin-6-yl)-3-(pyrrolidin-1-ylmethyl)benzamide] | 4.1% | > 10000 nM | 48.4% |  | 
> 10000 nM | 420 nM | > 10000 nM | 7 nM | > 10000 nM | > 10000 nM | CN1CCC(Oc2cccc(C(=O)Nc3cc4cc(-c5cnco5)cnc4cn3)c2)CC1 [Compound 3311, 3-((1-Methylpiperidin-4-yl)oxy)-N-(3-(oxazol-5-yl)-1,7-naphthyridin-6-yl) benzamide] | 5.8% | 1440 nM |  | 5.4% | 4.9%

Source: patent publication US10703748B2, “Diazanaphthalen-3-yl carboxamides and preparation and use thereof” (Samumed, LLC, priority 2017, dated 2020)
